Literature values, collected in patent US20220226239A1, “POLYMERIC MICELLE COMPLEXES, FORMULATIONS, AND USES THEREOF” (ARAVASC INC., priority 2019, published 2022).

How the values were obtained:
[1] = for pKa (tri-protic phosphate), first value: first of three pKa values; for pKa (tri-protic phosphate), second value: second of three pKa values; for pKa (tri-protic phosphate), third value: third of three pKa values
[2] = molecular target: T1, dihydropyrimidine dehydrogenase (DPD) (Homo sapiens, UniProt Q12882); settings: background statement
T1 sequence (Q12882 4-1025): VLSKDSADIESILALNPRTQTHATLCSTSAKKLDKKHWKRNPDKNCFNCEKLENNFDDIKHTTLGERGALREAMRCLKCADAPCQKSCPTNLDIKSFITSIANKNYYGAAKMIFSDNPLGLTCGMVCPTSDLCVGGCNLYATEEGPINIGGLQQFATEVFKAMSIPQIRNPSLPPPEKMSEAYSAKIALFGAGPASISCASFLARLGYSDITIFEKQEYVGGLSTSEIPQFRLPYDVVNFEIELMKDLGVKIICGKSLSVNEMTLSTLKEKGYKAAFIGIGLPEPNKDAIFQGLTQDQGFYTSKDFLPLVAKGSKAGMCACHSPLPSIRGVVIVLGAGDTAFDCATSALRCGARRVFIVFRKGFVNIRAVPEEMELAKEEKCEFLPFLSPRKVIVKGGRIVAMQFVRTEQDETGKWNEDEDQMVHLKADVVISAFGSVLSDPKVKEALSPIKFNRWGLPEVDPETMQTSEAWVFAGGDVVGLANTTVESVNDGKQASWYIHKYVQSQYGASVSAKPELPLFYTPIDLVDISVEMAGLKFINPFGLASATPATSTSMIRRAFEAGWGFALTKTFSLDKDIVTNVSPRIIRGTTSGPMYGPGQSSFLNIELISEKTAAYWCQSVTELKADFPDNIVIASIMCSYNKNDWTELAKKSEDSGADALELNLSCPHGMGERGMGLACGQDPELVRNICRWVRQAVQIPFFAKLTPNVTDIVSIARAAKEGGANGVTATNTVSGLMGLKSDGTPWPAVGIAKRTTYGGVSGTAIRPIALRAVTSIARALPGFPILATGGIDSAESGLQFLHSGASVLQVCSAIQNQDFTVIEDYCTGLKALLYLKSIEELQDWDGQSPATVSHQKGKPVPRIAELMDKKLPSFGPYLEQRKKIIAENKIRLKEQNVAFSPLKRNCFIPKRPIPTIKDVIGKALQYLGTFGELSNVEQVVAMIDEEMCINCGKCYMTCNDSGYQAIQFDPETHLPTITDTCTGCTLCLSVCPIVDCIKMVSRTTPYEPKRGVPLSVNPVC

Row | degradation by dihydropyrimidine dehydrogenase (DPD) [2] | Compound | pKa (tri-protic phosphate), first value [1] | Peturbed pKa (physiological pH) [1] | pKa (tri-protic phosphate), second value [1] | pKa (tri-protic phosphate), third value [1]
1 | – | Nc1nc2c(ncn2[C@@H]2O[C@@H]3COP(=O)(O)O[C@H]4[C@@H](O)[C@H](n5cnc6c(N)ncnc65)O[C@@H]4COP(=O)(O)O[C@@H]2[C@@H]3O)c(=O)[nH]1 [cGAMP, 2′, 3′ cyclic guanosine monophosphate-adenosine monophosphate] | phosphate) 2,15, | Greater than 6.5 | 7.20 | 12.33
2 | > 80% | O=c1[nH]cc(F)c(=O)[nH]1 [Formulation 5-FU, 5-fluorouracil] | – | – | – | –
3 | – | O=c1[nH]c(=O)n([C@H]2C[C@H](O)[C@@H](COP(=O)(O)O)O2)cc1F [FdUMP, 5-Fluoro-2′-deoxyuridine-5′-O-monophosphate] | phosphate) 2.15, | 6-6.5 | 7.20 | 12.33
